Assay results: PMC8115619, “Generation of a chemical genetic model for JAK3” (Scientific Reports, 2021)
“Also recorded” adds a separate entry of the source.

Legend:
[1] = biological target: EPH-A4 (Homo sapiens, UniProt P54764); test: Selectivity screen EPH-A4; format: biochemical; details: 1 µM inhibitor, mean
Description: (§1) For the in vitro kinase assay, JAK3 (5–20 mU diluted in 50 mM Tris pH 7.5, 0.1 mM EGTA, 0.05% β-mercaptoethanol, 1 mg/ml BSA) was assayed against PDKtide ([…]) in a final volume of 25.5 µl containing 50 mM Tris pH 7.5, 0.1 mM EGTA, 0.05% β-mercaptoethanol, 100 µM substrate peptide, 10 mM magnesium acetate and 0.02 mM [33P-γ-ATP] (50–1000 cpm/pmole) and incubated for 30 min at room temperature. Assays were started by the addition of the ATP and stopped by addition of 5 µl of 0.5 M (3%) orthophosphoric acid and then harvested onto P81 Unifilter plates with a wash buffer of 50 mM orthophosphoric acid. To determine the Km for ATP, assays were run using 1, 5, 10, 20, 50, 100, 200, 400, 500 μM ATP and Km derived by non-linear regression fitting to the Michaelis–Menten equation v = Vmax[S]/(Km + [S]). IC50 values for inhibitors via non-linear regression using a parameter model: Y = Bottom + (Top–Bottom)/(1 + (IC50/X)^HillSlope). Non-linear regression was carried out in Prism (version 8). In vitro selectivity screen was carried out as described previously.

[2] = biological target: ASK1 (Homo sapiens, UniProt Q99683); test: Selectivity screen ASK1; format: biochemical; details: 1 µM inhibitor, mean
[3] = biological target: p38a MAPK (Homo sapiens, UniProt Q16539); test: Selectivity screen p38a MAPK; format: biochemical; details: 1 µM inhibitor, mean
Description: as §1

[4] = biological target: HER4 (Homo sapiens, UniProt Q15303); test: Selectivity screen HER4; format: biochemical; details: 1 µM inhibitor, mean
Description: as §1

[5] = biological target: DYRK2 (Homo sapiens, UniProt Q92630); test: Selectivity screen DYRK2; format: biochemical; details: 1 µM inhibitor, mean
Description: as §1

[6] = biological target: PRAK (Homo sapiens, UniProt Q8IW41); test: Selectivity screen PRAK; format: biochemical; details: 1 µM inhibitor, mean
Description: as §1

[7] = system: IFNβ induced STAT1 phosphorylation in BMDMs; test: IFNβ induced STAT1 phosphorylation in macrophages; format: cell-based, mouse; details: wild type BMDMs, 10 μM inhibitor 2 h, 10 ng/ml IFNβ
Description: (§2) (A) BMDMs were isolated from wild type mice. Cells were incubated with the indicated inhibitors in μM for 2 h before stimulation with 10 ng/ml IL-4 for 30 min. The levels of phosphorylated STAT6 were then determined by immunoblotting. (B) As (A) except cells were stimulated 10 ng/ml GM-CSF and the levels of phosphorylated STAT5 determined. (C) As (A) except cells were stimulated 10 ng/ml IL-10 and the levels of phosphorylated STAT3 determined. (D) As (A) except cells were stimulated 10 ng/ml IFNβ and the levels of phosphorylated STAT1 determined. For A–D, levels of ERK1/2 were determined as a loading control.
Bone marrow derived macrophages (BMDMs) were cultured as described. Briefly, bone marrow was flushed in PBS from the femurs and tibias of mice. […]
(§3) Cells were lysed directly into SDS sample buffer and aliquots run on 10% polyacrylamide gels using standard methods. Proteins were transferred onto nitrocellulose membranes, and specific proteins were detected by immunoblotting. […] Bands were detected using Clarity ECL reagents from BioRad and imaged on a Licor Odyssey Fc system. Quantification was carried out using Licor Image Studio software. After correction for the ERK1/2 levels to account for loading differences, percentage inhibition was calculated relative to the IL-4 stimulated condition. IC50 values were calculated using the same methods as for the in vitro IC50 values.

[8] = biological target: PAK5 (Homo sapiens, UniProt Q9P286); test: Selectivity screen PAK5; format: biochemical; details: 1 µM inhibitor, mean
Description: as §1

[9] = biological target: MNK1 (Homo sapiens, UniProt Q9BUB5); test: Selectivity screen MNK1; format: biochemical; details: 1 µM inhibitor, mean
Description: as §1

[10] = biological target: PKCz (Homo sapiens, UniProt Q05513); test: Selectivity screen PKCz; format: biochemical; details: 1 µM inhibitor, mean
Description: as §1

[11] = biological target: LKB1 (Homo sapiens, UniProt Q15831); test: Selectivity screen LKB1; format: biochemical; details: 1 µM inhibitor, mean
Description: as §1

[12] = system: IL-10 induced STAT3 phosphorylation in BMDMs; test: IL-10 induced STAT3 phosphorylation in macrophages; format: cell-based, mouse; details: wild type BMDMs, inhibitor 2 h, 10 ng/ml IL-10
Description: as §2
Bone marrow derived macrophages (BMDMs) were cultured as described. Briefly, bone marrow was flushed in PBS from the femurs and tibias of mice. Cells were cultured on bacterial grade plastic for 7 days at 37 °C, 5% CO2. Cells were then detached using Versene (Gibco), re-plated on tissue culture plastic in BMDM media (in DMEM supplemented with 10% heat inactivated FBS (Labtech), 2 mM L-glutamine, 100 U/ml penicillin G, 100 μg/ml streptomycin and 0.25 μg/ml amphotericin, 5 ng/ml M-CSF) and used within 48 h. Where indicated cells were stimulated with 10 ng/ml IL-4, 10 ng/ml GM-CSF, 10 ng/ml IL-10 or 10 ng/ml IFNβ. All cytokines were from PeproTech.
as §3, with “immunoblotting. Antibodies against tyrosine phosphorylated STATs were from Cell Signaling Technology (phospho-STAT1 #9167, phospho-STAT3 #9131, phospho-STAT5 #4322 and phospho-STAT6 #9361).” for “immunoblotting.”

[13] = biological target: TESK1 (Homo sapiens, UniProt Q15569); test: Selectivity screen TESK1; format: biochemical; details: 1 µM inhibitor, mean
Description: as §1

[14] = biological target: MAP4K3 (Homo sapiens, UniProt Q8IVH8); test: Selectivity screen MAP4K3; format: biochemical; details: 1 µM inhibitor, mean
Description: as §1

[15] = biological target: MARK1 (Homo sapiens, UniProt Q9P0L2); test: Selectivity screen MARK1; format: biochemical; details: 1 µM inhibitor, mean
Description: as §1

[16] = biological target: CDK2-Cyclin A (Homo sapiens, UniProt P24941); test: Selectivity screen CDK2-Cyclin A; format: biochemical; details: 1 µM inhibitor, mean
[17] = biological target: NEK6 (Homo sapiens, UniProt Q9HC98); test: Selectivity screen NEK6; format: biochemical; details: 1 µM inhibitor, mean
Description: as §1

[18] = biological target: PKD1 (Homo sapiens, UniProt Q15139); test: Selectivity screen PKD1; format: biochemical; details: 1 µM inhibitor, mean
Description: as §1

[19] = biological target: PAK2 (Homo sapiens, UniProt Q13177); test: Selectivity screen PAK2; format: biochemical; details: 1 µM inhibitor, mean
Description: as §1

[20] = biological target: TAO1 (Homo sapiens, UniProt Q7L7X3); test: Selectivity screen TAO1; format: biochemical; details: 1 µM inhibitor, mean
Description: as §1

[21] = biological target: PLK1 (Homo sapiens, UniProt P53350); test: Selectivity screen PLK1; format: biochemical; details: 1 µM inhibitor, mean
Description: as §1

PKCz, sequence (Q05513 whole entry): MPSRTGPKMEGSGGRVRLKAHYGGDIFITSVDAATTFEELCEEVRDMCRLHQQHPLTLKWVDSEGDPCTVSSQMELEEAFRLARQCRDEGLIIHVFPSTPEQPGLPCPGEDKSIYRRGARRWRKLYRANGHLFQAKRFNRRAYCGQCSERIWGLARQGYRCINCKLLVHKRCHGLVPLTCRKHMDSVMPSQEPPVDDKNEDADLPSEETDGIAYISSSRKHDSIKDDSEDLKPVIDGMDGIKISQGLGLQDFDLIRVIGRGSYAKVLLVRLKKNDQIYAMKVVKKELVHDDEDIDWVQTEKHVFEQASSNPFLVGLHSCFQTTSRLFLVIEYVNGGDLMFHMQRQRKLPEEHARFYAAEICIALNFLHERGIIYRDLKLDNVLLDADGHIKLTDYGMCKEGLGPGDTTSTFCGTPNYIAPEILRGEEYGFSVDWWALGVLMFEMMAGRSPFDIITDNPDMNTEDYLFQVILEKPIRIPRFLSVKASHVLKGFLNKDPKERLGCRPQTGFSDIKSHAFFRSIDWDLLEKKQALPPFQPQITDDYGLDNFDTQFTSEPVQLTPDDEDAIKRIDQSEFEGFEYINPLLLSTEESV
LKB1, sequence (Q15831 whole entry): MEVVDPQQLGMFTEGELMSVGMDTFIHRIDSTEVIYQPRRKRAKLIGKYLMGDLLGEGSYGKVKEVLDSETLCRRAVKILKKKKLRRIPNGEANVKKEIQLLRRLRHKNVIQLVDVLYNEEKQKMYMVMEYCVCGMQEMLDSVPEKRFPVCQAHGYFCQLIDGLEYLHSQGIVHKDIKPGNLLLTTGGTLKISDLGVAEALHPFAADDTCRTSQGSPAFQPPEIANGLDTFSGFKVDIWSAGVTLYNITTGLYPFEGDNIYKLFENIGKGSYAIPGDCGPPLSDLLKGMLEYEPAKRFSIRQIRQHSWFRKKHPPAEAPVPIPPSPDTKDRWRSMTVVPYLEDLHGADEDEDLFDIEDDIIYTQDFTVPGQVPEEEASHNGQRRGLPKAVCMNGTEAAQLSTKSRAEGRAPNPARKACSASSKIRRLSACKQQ
LKB1, sequence (Q7RTN6 whole entry partner): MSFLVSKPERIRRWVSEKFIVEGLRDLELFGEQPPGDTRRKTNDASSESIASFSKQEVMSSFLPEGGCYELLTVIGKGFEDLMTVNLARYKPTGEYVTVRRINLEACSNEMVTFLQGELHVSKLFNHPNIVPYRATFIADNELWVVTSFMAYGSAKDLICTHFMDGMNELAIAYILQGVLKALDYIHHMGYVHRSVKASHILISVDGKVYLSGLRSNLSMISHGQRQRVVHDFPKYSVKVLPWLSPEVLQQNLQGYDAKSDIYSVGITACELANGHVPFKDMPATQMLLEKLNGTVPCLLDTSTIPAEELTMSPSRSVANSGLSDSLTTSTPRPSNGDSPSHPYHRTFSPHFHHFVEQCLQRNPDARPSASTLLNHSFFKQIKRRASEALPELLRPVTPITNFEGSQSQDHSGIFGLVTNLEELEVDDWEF
LKB1, sequence (Q9Y376 whole entry partner): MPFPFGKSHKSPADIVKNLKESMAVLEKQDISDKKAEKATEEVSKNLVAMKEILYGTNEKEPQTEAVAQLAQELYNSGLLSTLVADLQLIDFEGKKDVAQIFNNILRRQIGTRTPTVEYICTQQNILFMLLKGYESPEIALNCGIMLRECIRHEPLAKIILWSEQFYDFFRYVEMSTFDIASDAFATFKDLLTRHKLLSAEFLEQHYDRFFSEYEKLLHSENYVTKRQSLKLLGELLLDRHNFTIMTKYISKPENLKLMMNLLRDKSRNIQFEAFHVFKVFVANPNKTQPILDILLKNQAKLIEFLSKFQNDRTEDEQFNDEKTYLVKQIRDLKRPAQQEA
p38a MAPK, sequence (Q16539 whole entry): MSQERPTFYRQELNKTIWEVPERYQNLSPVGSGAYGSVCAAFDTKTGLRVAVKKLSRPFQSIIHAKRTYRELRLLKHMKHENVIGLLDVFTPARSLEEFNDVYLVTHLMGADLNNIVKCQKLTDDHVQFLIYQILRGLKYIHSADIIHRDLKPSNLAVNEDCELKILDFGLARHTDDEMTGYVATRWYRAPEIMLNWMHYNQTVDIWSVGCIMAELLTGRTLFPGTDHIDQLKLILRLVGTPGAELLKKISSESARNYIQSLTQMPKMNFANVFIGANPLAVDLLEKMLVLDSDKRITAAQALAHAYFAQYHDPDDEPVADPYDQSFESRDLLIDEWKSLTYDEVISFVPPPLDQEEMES
PLK1, sequence (P53350 whole entry): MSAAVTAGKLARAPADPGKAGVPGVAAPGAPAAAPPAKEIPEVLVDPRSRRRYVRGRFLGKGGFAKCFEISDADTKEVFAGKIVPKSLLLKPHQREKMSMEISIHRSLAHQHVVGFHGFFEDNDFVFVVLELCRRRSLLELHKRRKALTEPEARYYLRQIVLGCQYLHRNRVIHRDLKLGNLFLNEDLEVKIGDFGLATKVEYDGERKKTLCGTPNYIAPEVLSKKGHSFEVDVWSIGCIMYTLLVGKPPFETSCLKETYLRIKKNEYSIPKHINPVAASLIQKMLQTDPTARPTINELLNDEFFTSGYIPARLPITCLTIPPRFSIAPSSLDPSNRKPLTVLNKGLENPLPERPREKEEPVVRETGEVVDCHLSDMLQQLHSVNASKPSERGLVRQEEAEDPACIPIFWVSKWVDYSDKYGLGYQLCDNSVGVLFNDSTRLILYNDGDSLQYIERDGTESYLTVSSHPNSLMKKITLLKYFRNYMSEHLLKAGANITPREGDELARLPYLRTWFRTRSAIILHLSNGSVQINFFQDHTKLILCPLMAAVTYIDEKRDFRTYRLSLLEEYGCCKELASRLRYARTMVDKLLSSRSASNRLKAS
PAK5, sequence (Q9P286 whole entry): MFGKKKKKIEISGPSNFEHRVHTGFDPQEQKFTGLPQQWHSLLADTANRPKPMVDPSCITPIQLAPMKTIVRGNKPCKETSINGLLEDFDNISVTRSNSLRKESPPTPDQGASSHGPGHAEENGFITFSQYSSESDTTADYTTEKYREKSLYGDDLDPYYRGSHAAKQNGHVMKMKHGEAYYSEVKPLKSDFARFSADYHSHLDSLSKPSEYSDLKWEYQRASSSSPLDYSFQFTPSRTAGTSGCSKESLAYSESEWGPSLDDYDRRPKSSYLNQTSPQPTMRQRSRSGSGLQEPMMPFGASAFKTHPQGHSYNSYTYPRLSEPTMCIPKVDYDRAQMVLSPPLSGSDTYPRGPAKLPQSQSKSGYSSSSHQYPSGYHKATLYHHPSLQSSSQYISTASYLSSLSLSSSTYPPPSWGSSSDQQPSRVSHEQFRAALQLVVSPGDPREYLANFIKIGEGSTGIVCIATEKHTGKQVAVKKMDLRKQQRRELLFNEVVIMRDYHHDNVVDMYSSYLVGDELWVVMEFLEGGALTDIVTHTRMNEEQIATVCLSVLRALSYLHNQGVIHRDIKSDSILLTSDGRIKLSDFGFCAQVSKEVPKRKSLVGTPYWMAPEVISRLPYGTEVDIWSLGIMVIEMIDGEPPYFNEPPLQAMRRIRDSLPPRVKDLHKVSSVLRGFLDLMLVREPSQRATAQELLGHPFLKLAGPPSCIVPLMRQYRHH
DYRK2, sequence (Q92630 whole entry): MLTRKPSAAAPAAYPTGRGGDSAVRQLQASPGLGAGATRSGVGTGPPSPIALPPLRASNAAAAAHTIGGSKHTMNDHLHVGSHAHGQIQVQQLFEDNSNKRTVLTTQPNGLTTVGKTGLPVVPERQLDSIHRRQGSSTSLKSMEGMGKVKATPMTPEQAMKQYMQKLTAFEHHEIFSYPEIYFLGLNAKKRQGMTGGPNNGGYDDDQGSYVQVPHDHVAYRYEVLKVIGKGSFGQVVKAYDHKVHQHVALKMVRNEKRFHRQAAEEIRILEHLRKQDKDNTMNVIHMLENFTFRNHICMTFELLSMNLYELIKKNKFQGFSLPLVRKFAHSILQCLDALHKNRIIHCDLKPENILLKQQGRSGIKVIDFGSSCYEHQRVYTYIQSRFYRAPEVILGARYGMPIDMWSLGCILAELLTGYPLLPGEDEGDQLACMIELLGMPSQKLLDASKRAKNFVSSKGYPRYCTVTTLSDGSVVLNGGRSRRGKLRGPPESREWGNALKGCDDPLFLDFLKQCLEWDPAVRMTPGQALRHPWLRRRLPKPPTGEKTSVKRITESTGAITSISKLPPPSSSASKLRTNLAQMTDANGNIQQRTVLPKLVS
MNK1, sequence (Q9BUB5 whole entry): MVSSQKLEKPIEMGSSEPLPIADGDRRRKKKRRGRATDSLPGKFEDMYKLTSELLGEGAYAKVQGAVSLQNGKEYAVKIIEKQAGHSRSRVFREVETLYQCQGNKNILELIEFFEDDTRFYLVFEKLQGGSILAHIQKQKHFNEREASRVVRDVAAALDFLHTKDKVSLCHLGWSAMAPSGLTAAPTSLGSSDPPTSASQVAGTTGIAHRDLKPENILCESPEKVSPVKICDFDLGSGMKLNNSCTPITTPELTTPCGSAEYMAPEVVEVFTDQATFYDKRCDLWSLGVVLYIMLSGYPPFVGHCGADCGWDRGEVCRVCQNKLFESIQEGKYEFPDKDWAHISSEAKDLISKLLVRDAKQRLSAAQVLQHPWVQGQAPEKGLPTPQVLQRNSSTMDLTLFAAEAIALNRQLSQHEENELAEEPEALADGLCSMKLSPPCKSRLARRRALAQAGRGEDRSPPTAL
NEK6, sequence (Q9HC98 whole entry): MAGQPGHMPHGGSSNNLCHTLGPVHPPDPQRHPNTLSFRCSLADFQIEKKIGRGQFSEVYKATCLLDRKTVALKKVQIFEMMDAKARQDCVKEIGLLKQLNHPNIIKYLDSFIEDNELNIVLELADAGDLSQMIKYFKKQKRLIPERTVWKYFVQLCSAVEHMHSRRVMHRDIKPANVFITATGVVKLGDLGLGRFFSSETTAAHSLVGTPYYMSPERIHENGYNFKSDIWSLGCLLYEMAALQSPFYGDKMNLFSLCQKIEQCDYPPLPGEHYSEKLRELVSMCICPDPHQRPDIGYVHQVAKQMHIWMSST

Compound	activity remaining in the presence of the inhibitor: EPH-A4 [1]	activity remaining in the presence of the inhibitor: ASK1 [2]	activity remaining in the presence of the inhibitor: p38a MAPK [3]	activity remaining in the presence of the inhibitor: HER4 [4]	activity remaining in the presence of the inhibitor: DYRK2 [5]	activity remaining in the presence of the inhibitor: PRAK [6]	inhibition of IFNβ induced STAT1 phosphorylation [7]	activity remaining in the presence of the inhibitor: PAK5 [8]	activity remaining in the presence of the inhibitor: MNK1 [9]	activity remaining in the presence of the inhibitor: PKCz [10]	activity remaining in the presence of the inhibitor: LKB1 [11]	effect on IL-10 signaling (IL-10 induced STAT3 phosphorylation) [12]	activity remaining in the presence of the inhibitor: TESK1 [13]	activity remaining in the presence of the inhibitor: MAP4K3 [14]	activity remaining in the presence of the inhibitor: MARK1 [15]	activity remaining in the presence of the inhibitor: CDK2-Cyclin A [16]	activity remaining in the presence of the inhibitor: NEK6 [17]	activity remaining in the presence of the inhibitor: PKD1 [18]	activity remaining in the presence of the inhibitor: PAK2 [19]	activity remaining in the presence of the inhibitor: TAO1 [20]	also measured
C=CC(=O)Nc1cccc(CNc2nc(Nc3ccc(N4CCOCC4)cc3)ncc2Cl)c1 [TL8-52]	99	93	119	31	87	113	Some inhibition	90	112	98	132	no effect; also recorded: did not block	91	55	44	84	103	86	75	91	activity remaining in the presence of the inhibitor: PLK1 [21]: 114
C=CC(=O)Nc1cccc(CNc2nc(Nc3ccc(N4CCN(C)CC4)cc3OC)ncc2Cl)c1 [TL6-144]	104	108	96	9	92	93	–	94	105	88	91	–	99	83	87	87	97	46	81	99	activity remaining in the presence of the inhibitor: PLK1 [21]: 107
C=CC(=O)N1C[C@H](Nc2ncnc3[nH]ccc23)CC[C@@H]1C [PF-06651600, 1-((2S,5R)-5-((7H-Pyrrolo[2,3-d]pyrimidin-4-yl)amino)-2-methylpiperidin-1-yl)prop-2-en-1-one, reference compound]	–	–	–	–	–	–	did not block	–	–	–	–	did not block	–	–	–	–	–	–	–	–	effect on IL-10 signaling (IL-10 induced STAT3 phosphorylation) ([12]; listed as PF-0665160): no effect
